In patent US12336971B2, “Ophthalmic pharmaceutical compositions and uses thereof” (ALCON INC., priority 2021, dated 2025):
Like-named read-outs stand apart in the source and are kept apart here.

Key:
[1] = Equilibrium solubility of WS-12 in compositions / evaluation of solubilizers (HPLC); assay type: physicochemical
Protocol: As explained above, WS-12 is insoluble in water. Regardless, it was necessary to identify excipients that would provide WS-12 with a solubility of about 200 μM (0.0058%) in an aqueous medium compatible with administration (e.g., topical administration) to a human (e.g., a human eye). Several solubilizers were evaluated, including PEG 400 (polyethylene glycol 400), KOLLIDON 30 (polyvinylpyrrolidone), propylene glycol, TWEEN 80 (polyoxyethylene (20) sorbitan monooleate), KOLLIPHOR® EL or KOLLIPHOR® ELP (polyoxyl 35 castor oil) and tyloxapol (ethylene oxide-formaldehyde-p-octylphenol copolymer).

[2] = Loss of WS-12 concentration on storage in polyolefin containers; assay type: physicochemical
Protocol: It was discovered that there is an inverse relationship between the crystallinity of the polyolefin and the amount of WS-12 absorbed into the polyolefin when the pharmaceutical composition is stored in contact with the polyolefin at elevated temperatures (e.g. 40° C.). Crystallinity was measured by determining the melting temperature of the polyolefin by DSC, with higher melting temperatures denoting greater crystallinity.
LDPE 1, LDPE 2, LDPE 3, LDPE 4, and LDPE 5 in Table 12 correspond to LDPEs from different suppliers. Melting point values of the polyolefins were experimentally determined by differential scanning calorimetry (DSC). The densities of the polyolefins were as provided by the manufacturer's product data sheet.

[3] = WS-12 content in blow-fill-seal LDPE containers after curing at 40° C. and storage at 25° C.; assay type: physicochemical; details: Formulation 1 in LDPE BFS units; cured 10 days at 40° C., then stored at 25° C. over 140 days; FIG. 8
Protocol: The ‘curing’ technique, or process, described herein exploits the temperature dependence of WS-12 absorption into LDPE to yield a product that is stable when stored at 25° C. In some embodiments, the curing technique includes the following steps: (a) producing the BFS containers filled with an ophthalmic pharmaceutical composition provided herein; (b) storing the filled BFS containers at a first temperature (e.g. 40° C.) to drive WS-12 into the LDPE container with the aim of saturating the container walls with WS-12; and (c) subsequently storing the BFS containers at a second temperature (e.g., 25° C.) whereupon further loss of WS-12 to the container walls is stemmed due to the above described saturation process.
(99A long-term 25° C. trace). The first data point of each line represents the content of WS-12 in the BFS article after the curing period (e.g., the first temperature of storage). The amount of WS-12 lost to the LDPE increased as the duration of curing at 40° C. was increased from 1 day to 10 days. […] After a curing period of 10 days at 40° C. (black circles), the content of WS-12 in the BFS units stored at 25° C. was constant over a period of 140 days.

[4] = Chemical stability of WS-12 to typical drug stressors; assay type: physicochemical; details: typical drug stressors (acid, base, peroxide, heat, light)
[5] = JECFA, cited from earlier work

WS-12 level dissolved ([1]; KOLLIPHOR EL 3% w/v): ≥ 200 µM
Effect on WS-12 solubility ([1]; TWEEN 80, required concentration greater than 4%): significantly increased
solubility ([1]; aqueous medium with solubilizer, aqueous with cosolvent or surfactant or cyclodextrin, thermodynamic from solid, KOLLIDON 30 (polyvinylpyrrolidone), read-out: WS-12 level solubilized): < 200 µM
solubility ([1]; aqueous ophthalmic composition, 2 °C, aqueous with cosolvent or surfactant or cyclodextrin, thermodynamic from solid, in 3% KOLLIPHOR EL, 0.14% hypromellose, 0.78% Na dihydrogen phosphate dihydrate, 0.55% NaCl, pH 7, 2°-8° C., read-out: WS-12 Solubility (mg/mL) 2°-8° C.): 0.041 mg/mL
solubility ([1]; aqueous ophthalmic composition, aqueous with cosolvent or surfactant or cyclodextrin, thermodynamic from solid, in 3% KOLLIPHOR EL, 0.14% hypromellose, 0.78% Na dihydrogen phosphate dihydrate, 0.55% NaCl, pH 7, about 17° C., read-out: WS-12 Solubility (mg/mL) Room Temp (about 17° C.)): 0.055 mg/mL
solubility ([1]; propylene glycol, read-out: WS-12 level solubilized): < 200 µM
solubility ([1]; tyloxapol, read-out: WS-12 level solubilized): < 200 µM
Percent Loss in WS-12 Concentration After Storage in Polyolefin Container for 2 Weeks at 40° C. ([2]; High Density Polyethylene (HDPE)): 1.3%
Percent Loss in WS-12 Concentration After Storage in Polyolefin Container for 2 Weeks at 40° C. ([2]; Low Density Polyethylene (LDPE 1)): 2.8%
Percent Loss in WS-12 Concentration After Storage in Polyolefin Container for 2 Weeks at 40° C. ([2]; Low Density Polyethylene (LDPE 2)): 2.8%
Percent Loss in WS-12 Concentration After Storage in Polyolefin Container for 2 Weeks at 40° C. ([2]; Low Density Polyethylene (LDPE 3)): 3.3%
Percent Loss in WS-12 Concentration After Storage in Polyolefin Container for 2 Weeks at 40° C. ([2]; Low Density Polyethylene (LDPE 4)): 4.0%
Percent Loss in WS-12 Concentration After Storage in Polyolefin Container for 2 Weeks at 40° C. ([2]; Low Density Polyethylene (LDPE 5)): 4.5%
Percent Loss in WS-12 Concentration After Storage in Polyolefin Container for 2 Weeks at 40° C. ([2]; Polypropylene (PP)): 1.3%
Content of WS-12 in the BFS units [3]: constant
Chemical stability [4]: chemically stable
Structure (SMILES): COc1ccc(NC(=O)[C@@H]2C[C@H](C)CC[C@H]2C(C)C)cc1 [WS-12, (1R,2S,5R)-2-isopropyl-N-(4-methoxyphenyl)-5-methylcyclohexane-1-carboxamide]
Solubility in avocado oil ([5]; avocado oil): sparingly soluble
Solubility in ethanol ([5]; ethanol): sparingly soluble
Solubility in water ([5]; water): insoluble
